ChEMBL document CHEMBL5126555, “Targeting breast cancer resistance protein (BCRP/ABCG2): Functional inhibitors and expression modulators” (Eur J Med Chem, 2022)
Blank lines part the entries; values can stand above or below the molecule they belong to. Numbered stars: 1 amine (or outer) side, 2 acyl side, 3 side chain; on linkers, the order of the positions; unused ones are H or OH. Bridge positions count the residues as written; N and C are the ends. Square brackets hold non-standard residues; d marks the D form. Peptide text beside a SMILES is read from it. * marks the point of attachment. hTyr(3S-OH,4S-OH,3'-OSO3H) = N[C@H](C(=O)O)[C@H](O)[C@@H](O)c1ccc(O)c(OS(=O)(=O)O)c1; Orn(4R-OH,5R-OH) = O=C([C@H](C[C@@H](O)[C@@H](O)N[*:3])N[*:1])[*:2]; Pro(3S-OH,4S-Me) = C[C@H]1CN[C@H](C(=O)O)[C@H]1O; X1 = CCCCCOc1ccc(-c2cc(-c3ccc(C(=O)*)cc3)no2)cc1; Gln(3R-OH) = NC(=O)C[C@@H](O)[C@H](N)C(=O)O; Hyp = O=C(O)[C@@H]1C[C@@H](O)CN1

Columns and labels:
[1] = target: T1, Broad substrate specificity ATP-binding cassette transporter ABCG2 (Homo sapiens, UniProt Q9UNQ0); experiment: Inhibition of ABCG2 (unknown origin) expressed in human HEK293 cells membrane vesicles assessed inhibition of BCRP- mediated transport of 3[H]-E1S for 1 mins using [3H]-estrone sulfate as substrate by liquid scintillation counter analysis; type: cell membranes, Membrane vesicle
T1 sequence (Q9UNQ0 whole entry): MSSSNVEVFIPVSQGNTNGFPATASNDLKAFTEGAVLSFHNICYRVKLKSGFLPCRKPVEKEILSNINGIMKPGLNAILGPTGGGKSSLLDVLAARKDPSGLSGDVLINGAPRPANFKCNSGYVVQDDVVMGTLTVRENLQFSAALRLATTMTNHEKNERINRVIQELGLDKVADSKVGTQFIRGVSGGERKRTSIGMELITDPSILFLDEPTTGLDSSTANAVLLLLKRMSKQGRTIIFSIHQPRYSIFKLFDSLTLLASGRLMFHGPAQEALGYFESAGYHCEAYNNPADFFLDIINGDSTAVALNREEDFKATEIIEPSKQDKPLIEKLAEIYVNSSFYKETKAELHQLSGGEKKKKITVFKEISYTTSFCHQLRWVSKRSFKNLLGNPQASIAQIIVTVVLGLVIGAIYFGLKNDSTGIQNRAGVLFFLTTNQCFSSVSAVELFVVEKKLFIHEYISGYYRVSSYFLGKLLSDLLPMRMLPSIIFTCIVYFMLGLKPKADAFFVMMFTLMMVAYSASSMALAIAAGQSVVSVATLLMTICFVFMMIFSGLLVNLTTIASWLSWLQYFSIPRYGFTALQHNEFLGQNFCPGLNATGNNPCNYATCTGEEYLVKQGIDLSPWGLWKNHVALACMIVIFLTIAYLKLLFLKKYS

[2] = target: T1, Broad substrate specificity ATP-binding cassette transporter ABCG2; experiment: Inhibition of human ABCG2 expressed in human HEK293 cells membrane vesicles mediated transport of 3[H]-MTX for 2 mins using [3H]-methotrexate as substrate by rapid filtration technique; type: cell membranes, Membrane vesicle
[3] = target: T1, Broad substrate specificity ATP-binding cassette transporter ABCG2; experiment: Inhibition of human ABCG2 expressed in dog MDCK-II-BCRP cells mediated pheophorbide A efflux preincubated with PhA followed by compound addition and measured after 60 mins by flow cytometry; type: cell-based
[4] = target: T1, Broad substrate specificity ATP-binding cassette transporter ABCG2; experiment: Inhibition of human ABCG2 expressed in human SAOS-2 cells mediated mitoxantrone efflux using mitoxantrone as substrate by flow cytometry; type: cell-based
[5] = target: T1, Broad substrate specificity ATP-binding cassette transporter ABCG2; experiment: Inhibition of ABCG2 (unknown origin) expressed in human HEK293 cells assessed as reversal of BCRP-mediated mitoxantrone resistance and measured after 90 mins by FACSflow cytometry analysis; type: cell-based
[6] = target: T1, Broad substrate specificity ATP-binding cassette transporter ABCG2; experiment: Inhibition of human ABCG2 expressed in human HEK293 cells mediated pheophorbide A efflux assessed as intracellular pheophorbide A accumulation for 45 mins by FACSort flow cytometry; type: cell-based
[7] = target: T1, Broad substrate specificity ATP-binding cassette transporter ABCG2; experiment: Inhibition of ABCG2 (unknown origin) expressed in human MCF7/MX cells mediated mitoxantrone efflux assessed as intracellular mitoxantrone level and measured after 30 mins by FACSflow cytometry analysis; type: cell-based
[8] = target: T1, Broad substrate specificity ATP-binding cassette transporter ABCG2; experiment: Inhibition of human ABCG2 expressed in dog MDCK-II-BCRP cells mediated pheophorbide A efflux by flow cytometry; type: cell-based
[9] = target: T1, Broad substrate specificity ATP-binding cassette transporter ABCG2; experiment: Inhibition of ABCG2 (unknown origin) expressed in human HEK293 cells mediated pheophorbide A efflux and measured after 90 mins by FACSflow cytometry; type: cell-based
[10] = target: T1, Broad substrate specificity ATP-binding cassette transporter ABCG2; experiment: Inhibition of ABCG2 (unknown origin) expressed in human HEK293 cells membrane vesicles assessed inhibition of BCRP- mediated transport of 3[H]-E1S for 1 mins using [3H]-estrone sulfate as substrate by rapid filtration technique; type: cell membranes, Membrane vesicle
[11] = target: T1, Broad substrate specificity ATP-binding cassette transporter ABCG2; experiment: Inhibition of ABCG2 (unknown origin) expressed in human HEK cells membrane vesicle assessed as inhibition of BCRP- mediated transport of [3H]-E3S using [3H]-oestrone 3-sulfate as radiolabeled substrate by liquid scintillation counter analysis; type: cell membranes
[12] = target: T1, Broad substrate specificity ATP-binding cassette transporter ABCG2; experiment: Inhibition of human ABCG2 expressed in human HEK293 cells mediated pheophorbide A efflux and measured after 90 mins by FACSflow cytometry

Structure (SMILES): Cc1c(OCC(F)(F)F)ccnc1C[S+]([O-])c1nc2ccccc2[nH]1 (configuration not stated) [LANSOPRAZOLE]
- IC50 [2]: 14.4 µM

Structure (SMILES): Cc1cccc(C)c1OCC(=O)N[C@@H](Cc1ccccc1)[C@@H](O)C[C@H](Cc1ccccc1)NC(=O)[C@H](C(C)C)N1CCCNC1=O [LOPINAVIR]
- IC50 [3]: 7.6 µM

Structure (SMILES): CCCCCOc1ccc(-c2cc(-c3ccc(C(=O)N[C@H]4C[C@@H](O)[C@@H](O)NC(=O)[C@@H]5[C@@H](O)[C@@H](C)CN5C(=O)[C@H]([C@H](O)CC(N)=O)NC(=O)[C@H]([C@H](O)[C@@H](O)c5ccc(O)c(OS(=O)(=O)O)c5)NC(=O)[C@@H]5C[C@@H](O)CN5C(=O)[C@H]([C@@H](C)O)NC4=O)cc3)no2)cc1 [MICAFUNGIN] (X1-[Orn(4R-OH,5R-OH)]T[Hyp][hTyr(3S-OH,4S-OH,3'-OSO3H)][Gln(3R-OH)][Pro(3S-OH,4S-Me)]; lactam 1-C)
- IC50 [1]: 21 µM

Structure (SMILES): CN(C)C(=O)CCSC(SCCC(=O)O)c1cccc(/C=C/c2ccc3ccc(Cl)cc3n2)c1 (configuration not stated) [MK-571]
- IC50 [4]: 50 µM

Structure (SMILES): COC(=O)C1=C(C)NC(C)=C(C(=O)OCCN(C)Cc2ccccc2)C1c1cccc([N+](=O)[O-])c1 (configuration not stated) [NICARDIPINE]
- IC50 [5]: 4.8 µM

Structure (SMILES): COC(=O)C1=C(C)NC(C)=C(C(=O)OC)C1c1ccccc1[N+](=O)[O-] [NIFEDIPINE]
- IC50 [6]: 50.5 µM

Structure (SMILES): COCCOC(=O)C1=C(C)NC(C)=C(C(=O)OC(C)C)C1c1cccc([N+](=O)[O-])c1 (configuration not stated) [NIMODIPINE]
- IC50 [5]: 13.7 µM

Structure (SMILES): CCOC(=O)C1=C(C)NC(C)=C(C(=O)OC)C1c1cccc([N+](=O)[O-])c1 (configuration not stated) [NITRENDIPINE]
- IC50 [7]: 21.1 µM

Structure (SMILES): COc1ccc2[nH]c([S+]([O-])Cc3ncc(C)c(OC)c3C)nc2c1 (configuration not stated) [OMEPRAZOLE]
- IC50 [2]: 17.6 µM

Structure (SMILES): CC[C@@H]([C@H](C)O)n1ncn(-c2ccc(N3CCN(c4ccc(OC[C@@H]5CO[C@@](Cn6cncn6)(c6ccc(F)cc6F)C5)cc4)CC3)cc2)c1=O [POSACONAZOLE]
- IC50 [1]: 6 µM

Structure (SMILES): COCCCOc1ccnc(C[S+]([O-])c2nc3ccccc3[nH]2)c1C (configuration not stated) [RABEPRAZOLE]
- IC50 [2]: 8.5 µM

Structure (SMILES): CC(C)=CCC/C(C)=C/CNCCNC1C2CC3CC(C2)CC1C3 (configuration not stated) [SQ109]
- IC50 [10]: 5.5 µM

Structure (SMILES): C=CC[C@@H]1/C=C(\C)C[C@H](C)C[C@H](OC)[C@H]2O[C@@](O)(C(=O)C(=O)N3CCCC[C@H]3C(=O)O[C@H](/C(C)=C/[C@@H]3CC[C@@H](O)[C@H](OC)C3)[C@H](C)[C@@H](O)CC1=O)[C@H](C)C[C@@H]2OC [TACROLIMUS ANHYDROUS]
- IC50 [9]: 3300 nM

Next, values leading:

- IC50 [1]: 11 µM
Structure (SMILES): C[C@@H](c1nc(-c2ccc(C#N)cc2)cs1)[C@](O)(Cn1cncn1)c1cc(F)ccc1F [ISAVUCONAZOLE]

- IC50 [1]: 2 µM
Structure (SMILES): CCC(C)n1ncn(-c2ccc(N3CCN(c4ccc(OCC5COC(Cn6cncn6)(c6ccc(Cl)cc6Cl)O5)cc4)CC3)cc2)c1=O (configuration not stated) [ITRACONAZOLE]

- IC50 [2]: 5.5 µM
Structure (SMILES): COc1ccnc(C[S+]([O-])c2nc3ccc(OC(F)F)cc3[nH]2)c1OC (configuration not stated) [PANTOPRAZOLE]

- IC50 [8]: 1500 nM
Structure (SMILES): Cc1cc(/C=C/C#N)cc(C)c1Nc1ccnc(Nc2ccc(C#N)cc2)n1 [RILPIVIRINE]

- IC50 [9]: 1900 nM
Structure (SMILES): CO[C@H]1C[C@@H]2CC[C@@H](C)[C@@](O)(O2)C(=O)C(=O)N2CCCC[C@H]2C(=O)O[C@H]([C@H](C)C[C@@H]2CC[C@@H](O)[C@H](OC)C2)CC(=O)[C@H](C)/C=C(\C)[C@@H](O)[C@@H](OC)C(=O)[C@H](C)C[C@H](C)/C=C/C=C/C=C/1C [SIROLIMUS]

- IC50 [11]: 460 nM
Structure (SMILES): O=C(O)c1cc(/N=N/c2ccc(S(=O)(=O)Nc3ccccn3)cc2)ccc1O [SULFASALAZINE]

- IC50 [12]: 3 µM
Structure (SMILES): COc1cc(O)c2c(=O)cc(-c3ccccc3)oc2c1 [TECHTOCHRYSIN]

- IC50 [10]: 6.6 µM
Structure (SMILES): CSc1ccc2c(c1)N(CCC1CCCCN1C)c1ccccc1S2 (configuration not stated) [THIORIDAZINE]

- IC50 [10]: > 100 µM
Structure (SMILES): COc1cc(C(=O)C(=O)N(C)[C@@H](Cc2ccc(Cl)cc2)C(=O)N(Cc2ccccc2)C(CCc2ccncc2)CCc2ccncc2)cc(OC)c1OC [TIMCODAR]
